Laboratory results from the supplement of paper PMC9663587.

Key:
Cediranib/AZD2171 = compound: COc1cc2c(Oc3ccc4[nH]c(C)cc4c3F)ncnc2cc1OCCCN1CCCC1 [Cediranib/AZD2171]
[1] = compound: COc1ccc2c(c1)[C@]1(C[C@H]1c1ccc3c(/C=C/c4ccc(CN5C[C@@H](C)O[C@@H](C)C5)cc4)n[nH]c3c1)C(=O)N2
BVD523 = compound: CC(C)Nc1cc(-c2c[nH]c(C(=O)N[C@H](CO)c3cccc(Cl)c3)c2)c(Cl)cn1 [BVD523]
[2] = compound: CCCCOc1c(C(=O)c2c(F)cc(C)cc2F)c[nH]c2nncc1-2
Rucaparib = compound: CNCc1ccc(-c2[nH]c3cc(F)cc4c3c2CCNC4=O)cc1 [Rucaparib]
THZ1 [3] = compound: T1, CN(C)C/C=C/C(=O)Nc1ccc(C(=O)Nc2cccc(Nc3ncc(Cl)c(-c4c[nH]c5ccccc45)n3)c2)cc1 [THZ1]
THZ531 [4] = compound: T2, CN(C)C/C=C/C(=O)Nc1ccc(C(=O)N2CCC[C@@H](Nc3ncc(Cl)c(-c4c[nH]c5ccccc45)n3)C2)cc1 [THZ531]
Alpelisib/BYL719 = compound: Cc1nc(NC(=O)N2CCC[C@H]2C(N)=O)sc1-c1ccnc(C(C)(C)C(F)(F)F)c1 [Alpelisib/BYL719]
Saracatinib/AZD0530 = compound: CN1CCN(CCOc2cc(OC3CCOCC3)c3c(Nc4c(Cl)ccc5c4OCO5)ncnc3c2)CC1 [Saracatinib/AZD0530]
[5] = compound: CC(=O)Nc1cccc(-n2c(=O)n(C3CC3)c(=O)c3c(Nc4ccc(I)cc4F)n(C)c(=O)c(C)c32)c1
AZD1775 = compound: C=CCn1c(=O)c2cnc(Nc3ccc(N4CCN(C)CC4)cc3)nc2n1-c1cccc(C(C)(C)O)n1 [AZD1775]
[6] = compound: CO[C@@H](C)Cn1c(=O)n(C)c2cnc3ccc(-c4cncc(C(C)(C)O)c4)cc3c21
[7] = compound: CC(=O)c1c(C)c2cnc(Nc3ccc(N4CCNCC4)cn3)nc2n(C2CCCC2)c1=O; test: increase in dead-cell fraction, 72 h; higher = more death;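 further: breast cancer cell lines in 384-well plates, stained with Hoechst plus LIVE/DEAD far red dye and imaged, cells above an LDR intensity threshold counted dead, Hoechst-negative corpses included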
Neratinib/HKI272 = compound: CCOc1cc2ncc(C#N)c(Nc3ccc(OCc4ccccn4)c(Cl)c3)c2cc1NC(=O)/C=C/CN(C)C [Neratinib/HKI272]; test: as above
THZ1 [8] = compound: T1, THZ1; test: as above
THZ531 [9] = compound: T2, THZ531; test: as above
LEE011/Ribociclib = compound: CN(C)C(=O)c1cc2cnc(Nc3ccc(N4CCNCC4)cn3)nc2n1C1CCCC1 [LEE011/Ribociclib]; test: as above
[10] = compound: CCc1cnn2c(NCc3ccc[n+]([O-])c3)cc(N3CCCC[C@H]3CCO)nc12; test: as above
BSJ-03-123 = compound: CC(=O)c1c(C)c2cnc(Nc3ccc(N4CCN(CCOCCOCCOCCNC(=O)COc5cccc6c5C(=O)N(C5CCC(=O)NC5=O)C6=O)CC4)cn3)nc2n(C2CCCC2)c1=O [BSJ-03-123]; test: as above
YKL-5-124 = compound: C=CC(=O)Nc1ccc(C(=O)Nc2[nH]nc3c2CN(C(=O)N[C@H](CN(C)C)c2ccccc2)C3(C)C)cc1 [YKL-5-124]; test: as above
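Wherever GR50, 72 h is given: breast cancer and non-malignant breast epithelial cell lines, Deep Dye Drop or Dye Drop imaging, nine half-log doses, GR normalized to time-zero plates and DMSO-only controls.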

184A1
GR50, 72 h (Cediranib/AZD2171): 7.6 µM | GR50, 72 h [1]: 0.00198 µM | GR50, 72 h (BVD523): 0.00782 µM | GR50, 72 h [2]: < 0.001 µM | GR50, 72 h (Rucaparib): > 10 µM | GR50, 72 h (THZ1 [3]): 0.00774 µM | GR50, 72 h (THZ531 [4]): 0.269 µM | GR50, 72 h (Alpelisib/BYL719): 7.72 µM | GR50, 72 h (Saracatinib/AZD0530): 4.62 µM | GR50, 72 h [5]: 0.00069 µM | GR50, 72 h (AZD1775): 0.674 µM | GR50, 72 h [6]: 0.00147 µM | increase in dead-cell fraction ([7]; 0.0003162 µM): -0.0004 | increase in dead-cell fraction ([7]; 0.001 µM): 0.0016 | increase in dead-cell fraction ([7]; 0.003162 µM): -0.0008 | increase in dead-cell fraction ([7]; 0.01 µM): 0.0001 | increase in dead-cell fraction ([7]; 0.03162 µM): 0.0086 | increase in dead-cell fraction ([7]; 0.1 µM): 0.0183 | increase in dead-cell fraction ([7]; 0.3162 µM): 0.0224 | increase in dead-cell fraction ([7]; 1 µM): 0.0414 | increase in dead-cell fraction ([7]; 3.162 µM): 0.0383 | increase in dead-cell fraction (Neratinib/HKI272; 0.0003162 µM): -0.004 | increase in dead-cell fraction (Neratinib/HKI272; 0.001 µM): -0.0007 | increase in dead-cell fraction (Neratinib/HKI272; 0.003162 µM): -0.0029 | increase in dead-cell fraction (Neratinib/HKI272; 0.01 µM): 0.001 | increase in dead-cell fraction (Neratinib/HKI272; 0.03162 µM): 0.0214 | increase in dead-cell fraction (Neratinib/HKI272; 0.1 µM): 0.0256 | increase in dead-cell fraction (Neratinib/HKI272; 0.3162 µM): 0.0311 | increase in dead-cell fraction (Neratinib/HKI272; 1 µM): 0.028 | increase in dead-cell fraction (Neratinib/HKI272; 3.162 µM): 0.0419 | increase in dead-cell fraction (THZ1 [8]; 0.0001 µM): -0.0006 | increase in dead-cell fraction (THZ1 [8]; 0.0003162 µM): 0.0038 | increase in dead-cell fraction (THZ1 [8]; 0.001 µM): 0.0021 | increase in dead-cell fraction (THZ1 [8]; 0.003162 µM): 0.0076 | increase in dead-cell fraction (THZ1 [8]; 0.01 µM): 0.0448 | increase in dead-cell fraction (THZ1 [8]; 0.03162 µM): 0.169 | increase in dead-cell fraction (THZ1 [8]; 0.1 µM): 0.175 | increase in dead-cell fraction (THZ1 [8]; 0.3162 µM): 0.152 | increase in dead-cell fraction (THZ531 [9]; 0.0001 µM): 0.0016 | increase in dead-cell fraction (THZ531 [9]; 0.0003162 µM): 0.0042 | increase in dead-cell fraction (THZ531 [9]; 0.001 µM): 0.0042 | increase in dead-cell fraction (THZ531 [9]; 0.003162 µM): 0.0053 | increase in dead-cell fraction (THZ531 [9]; 0.01 µM): -0.004 | increase in dead-cell fraction (THZ531 [9]; 0.03162 µM): 0.0024 | increase in dead-cell fraction (THZ531 [9]; 0.1 µM): 0.0107 | increase in dead-cell fraction (THZ531 [9]; 0.3162 µM): 0.0204 | increase in dead-cell fraction (THZ531 [9]; 1 µM): 0.447 | increase in dead-cell fraction (LEE011/Ribociclib; 0.001 µM): 0.0076 | increase in dead-cell fraction (LEE011/Ribociclib; 0.003162 µM): 0.0015 | increase in dead-cell fraction (LEE011/Ribociclib; 0.01 µM): 0.0139 | increase in dead-cell fraction (LEE011/Ribociclib; 0.03162 µM): 0.0172 | increase in dead-cell fraction (LEE011/Ribociclib; 0.1 µM): 0.0129 | increase in dead-cell fraction (LEE011/Ribociclib; 0.3162 µM): 0.0139 | increase in dead-cell fraction (LEE011/Ribociclib; 1 µM): 0.0153 | increase in dead-cell fraction (LEE011/Ribociclib; 3.162 µM): 0.015 | increase in dead-cell fraction (LEE011/Ribociclib; 10 µM): 0.041 | increase in dead-cell fraction ([10]; 0.0001 µM): -0.0039 | increase in dead-cell fraction ([10]; 0.0003162 µM): -0.0006 | increase in dead-cell fraction ([10]; 0.001 µM): -0.0027 | increase in dead-cell fraction ([10]; 0.003162 µM): -0.0019 | increase in dead-cell fraction ([10]; 0.01 µM): 0.0164 | increase in dead-cell fraction ([10]; 0.03162 µM): 0.277 | increase in dead-cell fraction ([10]; 0.1 µM): 0.127 | increase in dead-cell fraction ([10]; 0.3162 µM): 0.363 | increase in dead-cell fraction ([10]; 1 µM): 0.368 | increase in dead-cell fraction (BSJ-03-123; 0.001 µM): 0.0061 | increase in dead-cell fraction (BSJ-03-123; 0.003162 µM): 0.0101 | increase in dead-cell fraction (BSJ-03-123; 0.01 µM): 0.0181 | increase in dead-cell fraction (BSJ-03-123; 0.03162 µM): 0.0097 | increase in dead-cell fraction (BSJ-03-123; 0.1 µM): 0.0423 | increase in dead-cell fraction (BSJ-03-123; 0.3162 µM): 0.0318 | increase in dead-cell fraction (BSJ-03-123; 1 µM): 0.0505 | increase in dead-cell fraction (BSJ-03-123; 3.162 µM): 0.0581 | increase in dead-cell fraction (BSJ-03-123; 10 µM): 0.179 | increase in dead-cell fraction (YKL-5-124; 0.001 µM): 0.02 | increase in dead-cell fraction (YKL-5-124; 0.003162 µM): 0.0379 | increase in dead-cell fraction (YKL-5-124; 0.01 µM): 0.119 | increase in dead-cell fraction (YKL-5-124; 0.03162 µM): 0.122 | increase in dead-cell fraction (YKL-5-124; 0.1 µM): 0.147 | increase in dead-cell fraction (YKL-5-124; 0.3162 µM): 0.0805 | increase in dead-cell fraction (YKL-5-124; 1 µM): 0.137 | increase in dead-cell fraction (YKL-5-124; 3.162 µM): 0.179 | increase in dead-cell fraction (YKL-5-124; 10 µM): 0.34
